This is an account of results in publication PMC8457121, “From Kinase Inhibitors to Multitarget Ligands as Powerful Drug Leads for Alzheimer's Disease using Protein‐Templated Synthesis” (Angewandte Chemie (International Ed. in English), 2021).

SMILES strings stand for the structures.

A short description of one data set: PAMPA-BBB test. The data set is classed as in vitro ADME. Particulars: for Papp at 2.5 h / Pe exp / CNS prediction: PAMPA-BBB; for Papp at 2.5 h / Pe exp: PBS pH 7.4/DMSO 95/5, 2.5 h, room temperature; for Papp at 2.5 h: read-out: Pe exp.
A further data set concerns the target CK1δ (Homo sapiens, UniProt P48730). The data set is described as follows: CK1δ inhibition enzymatic assay (Kinase-Glo). It is filed as biochemical. The method, then:
CK1δ inhibition enzymatic assay. The “Kinase-Glo” Kit from Promega was used to screen compounds for activity against CK1δ Kinase-Glo assays were performed in assay buffer using black 96-well plates. In a typical assay, 10 μl of test compound (dissolved in DMSO at 1 mM concentration and diluted in advance in assay buffer to the desired concentration) 10 μl (16 ng) of enzyme were added to each well followed by 20 µl of assay buffer containing 0,1 % casein as substrate […]
exceed 1%. After 60-min incubation at 30°C the enzymatic reaction was stopped […]
with 40 μl of Kinase-Glo reagent. Glow-type luminescence was recorded after 10 min using a FLUOstar Optima (BMG Labtechnologies GmbH, Offenburg, Germany) multimode reader. The activity is proportional to the difference of the total and consumed ATP. The inhibitory activities were calculated on the basis of maximal activities measured in the absence of inhibitor. The IC50 was defined as the concentration of each compound that reduces a 50% the enzymatic activity with respect to that without inhibitors. […]
Ibérica SAU). Kinase-Glo Luminescent Kinase Assay was obtained from Promega (Promega Biotech Ibérica, SL). ATP and all other reagents were from Sigma Aldrich (St. Louis, MO). Assay buffer contained 50 mM HEPES (pH 7.5), 1 mM EDTA, 1 mM EGTA, and 15 mM magnesium acetate. […]
(In general: Kinase-Glo measures the ATP left after a reaction by luminescence.)

The next data set concerns the target BACE1 (Homo sapiens, UniProt P56817). The data set is described as follows: BACE1 enzymatic assay (FRET). The data set is classed as biochemical. Particulars: for inhibition at 10 µM: read-out: BACE1 enzyme inhibition at 10 μM.
A further data set addresses T1, Human recombinant GSK3β (Homo sapiens, UniProt P49841).
T1 construct: purchased Millipore (Millipore Ibérica SAU)
The data set is described as follows: GSK3β inhibition enzymatic assay (Kinase-Glo). It is filed as biochemical. As for the experimental part: GSK3β inhibition enzymatic assay. Human recombinant GSK3β and the pre-phosphorylated polypeptide substrate were purchased from Millipore (Millipore Ibérica SAU). Kinase-Glo Luminescent Kinase Assay was obtained from Promega (Promega Biotech Ibérica, SL). ATP and all other reagents were from Sigma Aldrich (St. Louis, MO). Assay buffer contained 50 mM HEPES (pH 7.5), 1 mM EDTA, 1 mM EGTA, and 15 mM magnesium acetate.
Kinase-Glo assays were performed in assay buffer using black 96-well plates. In a typical assay, 10 μL (10 μM) of test compound (dissolved in DMSO) at 1 mM concentration and diluted in advance in assay buffer to the desired concentration) and 10 μL (20 ng) of enzyme were added to each well followed by 20 μL of assay buffer containing 25 μM substrate and 1 μM ATP. The final DMSO concentration […]
After 30 min incubation at 30 °C, the enzymatic reaction was stopped with 40 μL of Kinase-Glo reagent. Glow-type luminescence was recorded after 10 min using a FLUOstar Optima (BMG
Labtechnologies GmbH, Offenburg, Germany) multimode reader. The activity is proportional to the difference of the total and consumed ATP. The inhibitory activities were calculated based on maximal activities measured in the absence of inhibitor. The IC50 was defined as the concentration of each compound that reduces a 50 % the enzymatic activity with respect to that without inhibitors. […]

On the set-up of data set [1]: method as in earlier work. Particulars: PAMPA-BBB reported permeability ref 2; cited from earlier work. For orientation: The PAMPA barrier holds no transporters, so it reflects passive diffusion.
A further data set addresses T2, LRRK2 (Homo sapiens, UniProt Q5S007).
T2 construct: purchased ThermoFisher (assay run by the company)
The data set is described as follows: LRRK2 inhibition enzymatic assay (Adapta, ThermoFisher). It is filed as biochemical. Particulars: for inhibition at 10 µM: read-out: LRRK2 enzyme inhibition at 10 μM.

BACE1, sequence (P56817 46-501): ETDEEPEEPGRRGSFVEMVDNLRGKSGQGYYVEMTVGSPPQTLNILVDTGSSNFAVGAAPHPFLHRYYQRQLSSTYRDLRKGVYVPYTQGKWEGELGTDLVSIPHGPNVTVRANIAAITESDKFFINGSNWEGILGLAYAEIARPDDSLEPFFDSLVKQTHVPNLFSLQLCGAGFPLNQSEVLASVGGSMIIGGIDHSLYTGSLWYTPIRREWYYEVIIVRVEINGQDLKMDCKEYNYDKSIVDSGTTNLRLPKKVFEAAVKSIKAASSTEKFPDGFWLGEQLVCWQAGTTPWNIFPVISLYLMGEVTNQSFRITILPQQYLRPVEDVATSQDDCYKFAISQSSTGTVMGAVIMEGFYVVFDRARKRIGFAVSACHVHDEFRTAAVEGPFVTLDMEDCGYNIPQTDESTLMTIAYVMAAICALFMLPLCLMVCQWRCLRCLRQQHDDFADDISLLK
T2 sequence (Q5S007 whole entry): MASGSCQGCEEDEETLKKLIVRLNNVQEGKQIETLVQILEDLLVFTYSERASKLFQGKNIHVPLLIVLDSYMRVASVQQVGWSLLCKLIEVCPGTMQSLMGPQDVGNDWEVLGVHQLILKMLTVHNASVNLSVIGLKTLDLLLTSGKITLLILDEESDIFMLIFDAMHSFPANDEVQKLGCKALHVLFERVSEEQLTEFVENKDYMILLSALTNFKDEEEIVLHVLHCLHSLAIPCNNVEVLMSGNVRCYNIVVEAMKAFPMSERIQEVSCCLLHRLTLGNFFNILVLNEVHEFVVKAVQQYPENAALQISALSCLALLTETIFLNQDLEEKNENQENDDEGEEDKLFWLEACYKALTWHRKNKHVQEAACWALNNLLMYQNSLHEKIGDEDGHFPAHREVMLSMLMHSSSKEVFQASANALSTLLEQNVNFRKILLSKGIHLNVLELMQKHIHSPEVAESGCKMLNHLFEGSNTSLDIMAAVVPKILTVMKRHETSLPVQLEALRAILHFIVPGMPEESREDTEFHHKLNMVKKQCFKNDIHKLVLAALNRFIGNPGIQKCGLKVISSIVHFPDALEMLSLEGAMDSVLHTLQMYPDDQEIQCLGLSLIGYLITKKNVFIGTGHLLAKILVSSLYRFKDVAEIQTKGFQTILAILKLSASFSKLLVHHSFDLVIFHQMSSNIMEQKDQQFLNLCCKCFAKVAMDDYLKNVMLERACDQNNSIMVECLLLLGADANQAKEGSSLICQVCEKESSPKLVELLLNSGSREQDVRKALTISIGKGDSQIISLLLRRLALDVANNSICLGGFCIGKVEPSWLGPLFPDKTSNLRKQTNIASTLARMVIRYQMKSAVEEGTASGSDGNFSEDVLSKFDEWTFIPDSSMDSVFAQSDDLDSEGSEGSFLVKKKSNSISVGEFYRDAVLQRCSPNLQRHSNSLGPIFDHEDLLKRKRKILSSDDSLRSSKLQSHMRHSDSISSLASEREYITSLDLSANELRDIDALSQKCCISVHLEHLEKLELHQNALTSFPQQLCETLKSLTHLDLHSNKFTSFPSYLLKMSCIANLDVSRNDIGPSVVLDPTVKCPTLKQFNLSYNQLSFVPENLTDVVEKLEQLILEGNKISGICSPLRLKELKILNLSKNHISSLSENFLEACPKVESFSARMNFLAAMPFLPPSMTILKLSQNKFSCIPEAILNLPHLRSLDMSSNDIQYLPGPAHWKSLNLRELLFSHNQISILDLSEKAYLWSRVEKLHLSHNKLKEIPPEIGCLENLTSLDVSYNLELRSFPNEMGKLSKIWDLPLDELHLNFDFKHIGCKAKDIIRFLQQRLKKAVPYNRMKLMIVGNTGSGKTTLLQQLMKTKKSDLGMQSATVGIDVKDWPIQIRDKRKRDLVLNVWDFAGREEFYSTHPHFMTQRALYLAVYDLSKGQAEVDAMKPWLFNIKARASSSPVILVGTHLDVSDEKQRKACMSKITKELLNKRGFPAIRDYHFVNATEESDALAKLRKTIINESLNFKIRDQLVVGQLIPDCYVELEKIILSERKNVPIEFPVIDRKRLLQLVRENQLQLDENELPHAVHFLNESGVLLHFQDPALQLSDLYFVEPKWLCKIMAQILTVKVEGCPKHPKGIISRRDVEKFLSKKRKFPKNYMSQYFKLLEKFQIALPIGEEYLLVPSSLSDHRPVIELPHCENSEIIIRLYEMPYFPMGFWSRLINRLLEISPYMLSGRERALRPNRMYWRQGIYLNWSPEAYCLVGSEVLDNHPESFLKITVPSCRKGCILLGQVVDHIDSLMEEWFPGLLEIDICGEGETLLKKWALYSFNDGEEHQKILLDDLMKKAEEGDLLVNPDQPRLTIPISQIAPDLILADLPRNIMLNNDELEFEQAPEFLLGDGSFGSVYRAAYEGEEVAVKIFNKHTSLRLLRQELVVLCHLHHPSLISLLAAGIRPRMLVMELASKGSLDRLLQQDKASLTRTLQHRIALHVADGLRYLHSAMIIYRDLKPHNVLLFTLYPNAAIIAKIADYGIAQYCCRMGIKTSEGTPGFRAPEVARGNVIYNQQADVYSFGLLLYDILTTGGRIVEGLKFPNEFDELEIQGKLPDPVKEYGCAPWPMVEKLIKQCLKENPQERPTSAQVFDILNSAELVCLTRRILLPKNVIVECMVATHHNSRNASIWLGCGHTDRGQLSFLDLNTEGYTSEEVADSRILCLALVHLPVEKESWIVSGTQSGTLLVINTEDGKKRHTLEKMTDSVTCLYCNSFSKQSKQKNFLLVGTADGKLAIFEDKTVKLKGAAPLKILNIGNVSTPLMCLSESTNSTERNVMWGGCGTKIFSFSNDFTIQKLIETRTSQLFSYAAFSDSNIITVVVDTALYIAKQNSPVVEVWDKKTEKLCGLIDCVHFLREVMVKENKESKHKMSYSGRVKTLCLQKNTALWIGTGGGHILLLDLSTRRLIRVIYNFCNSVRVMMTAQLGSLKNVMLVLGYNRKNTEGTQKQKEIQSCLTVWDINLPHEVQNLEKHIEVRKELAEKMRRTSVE
CK1δ, sequence (P48730 whole entry): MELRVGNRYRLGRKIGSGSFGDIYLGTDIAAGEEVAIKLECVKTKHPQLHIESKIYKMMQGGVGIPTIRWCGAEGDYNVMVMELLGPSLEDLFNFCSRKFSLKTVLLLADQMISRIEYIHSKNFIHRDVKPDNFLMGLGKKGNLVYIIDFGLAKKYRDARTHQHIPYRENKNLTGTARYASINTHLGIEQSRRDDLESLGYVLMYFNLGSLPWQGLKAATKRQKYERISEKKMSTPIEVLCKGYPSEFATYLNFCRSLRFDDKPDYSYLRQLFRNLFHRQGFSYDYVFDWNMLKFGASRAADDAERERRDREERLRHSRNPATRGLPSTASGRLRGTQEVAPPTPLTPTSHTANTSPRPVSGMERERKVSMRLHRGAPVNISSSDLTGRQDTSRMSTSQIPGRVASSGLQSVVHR
T1 sequence (P49841 whole entry): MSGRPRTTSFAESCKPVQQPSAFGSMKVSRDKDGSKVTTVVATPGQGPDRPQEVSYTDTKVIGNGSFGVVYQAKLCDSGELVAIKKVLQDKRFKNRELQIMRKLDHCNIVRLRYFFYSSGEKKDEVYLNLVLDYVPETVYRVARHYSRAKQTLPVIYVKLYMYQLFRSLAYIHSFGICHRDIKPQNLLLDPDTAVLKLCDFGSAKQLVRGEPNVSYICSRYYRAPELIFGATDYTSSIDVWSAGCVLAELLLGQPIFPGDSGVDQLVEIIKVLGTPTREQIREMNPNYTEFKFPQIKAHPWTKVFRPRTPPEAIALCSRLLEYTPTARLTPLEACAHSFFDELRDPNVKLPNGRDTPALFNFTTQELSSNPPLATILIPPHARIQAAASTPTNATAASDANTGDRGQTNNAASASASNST
Description for BACE1: BACE1 enzymatic assay. BACE1 in vitro assays were carried out using FRET.
μM) carrying the Swedish mutation and containing a rhodamine as a fluorescence donor and a quencher acceptor at each end was used. The intact substrate is weakly fluorescent and becomes highly fluorescent upon enzymatic cleavage.
The assays were conducted in 50 mM sodium acetate buffer, pH 4.5, in a final
enzyme concentration (1 U/mL). Inhibitor screening at 10 μM. The mixture was
sodium acetate. Fluorescence was measured with a FLUOstar Optima (BMG
Description for PAMPA-BBB test: CNS penetration: in vitro PAMPA-BBB test. Prediction of the brain penetration was evaluated using a parallel artificial membrane permeability assay (PAMPA).1
Nine quality control compounds (mentioned below) of know BBB permeability
were included in each experiment to validate the analysis set.2 Commercial drugs
dissolved in 250 µL of DMSO (Sigma-Aldrich). 25 µL of these compound stock
solutions were taken and 225 µL of DMSO and 4750 µL of PBS pH 7.4 buffer
were added to reach 5% of DMSO concentration in the experiment and a final
compound concentration in the range of 0.2 to 1.1 mM. Compounds to be
determined their ability to pass the brain barrier (0.5-1 mg) were dissolved in 250
µL of DMSO and 4750 µL of PBS pH 7.4 was carefully added to afford a final
compound concentration in the range of 0.2 to 1.1 mM. Solutions were filtered
using filter PDVF membrane units (diameter 30 mm, pore size 0.45 μm, Symta).
10 µL of each solution were taken and diluted 10-fold with PBS/DMSO (95/5) for
HPLC-MS analysis. The acceptor 96-well plate (Multiscreen®, catalog no.
MAMCS9610, Millipore) was filled with 180 µL of PBS/DMSO (95/5). The donor
96-well plate (Multiscreen® IP Sterile Plate PDVF membrane, pore size is 0.45
M, catalog no. MAIPS4510, Millipore) was coated with 4 µL 20 mg·mL-1 of
for 5 min and then 180 µL of each compound solution was added. Then the donor
plate was put on the acceptor plate and kept for 2.5 h at room temperature. After
incubation, samples were collected from the acceptor plate and diluted 10-fold
with PBS/DMSO (95/5) for HPLC-MS analysis and compared to HPLC-MS of
initial solutions. Absorbance peak of each compound was determined by MS
detection and was used to calculate the concentration of compounds and
Every sample was analysed in two independent
runs. HPLC-MS was performed using a HPLC-MS equipment from Thermo
Fisher coupled to a Finnigan TM LXQ TM detector. Each compound was
analysed using a Sunfire column C18, 3.5 μm (50 mm x 4.6 mm) and acetonitrile
and Milli-Q water (with 0.1% formic acid) as mobile phase. The standard gradient

Take `Cn1c(=O)c2c(ncn2C)n(C)c1=O` [Caffeine, caffeine, reference compound]: in “PAMPA-BBB test”, the Papp at 2.5 h was determined as 1.45 ± 0.26 ×10⁻⁶ cm/s.
Still for that read-out and setting: in the case of `CNCCCN1c2ccccc2CCc2ccccc21` [Desipramine, desipramine, reference compound] it was 7.44 ± 0.9 ×10⁻⁶ cm/s.
Turning to `CCn1cc(C(=O)O)c(=O)c2cc(F)c(N3CCNCC3)nc21` [Enoxacine, enoxacine, reference compound], the Pe exp in the data set “PAMPA-BBB test” is recorded as 1.41 ± 0.05 10-6 cm s-1.
For `O=C(Cc1ccccc1)Nc1nc2ccccc2s1` [MBC-858, reference compound], the IC50 – broadly, the concentration needed to halve the response being measured – was 0.33 ± 0.03 µM against CK1δ and greater than 20 µM against BACE1.
Take `CCn1sc(=O)n(Cc2ccccc2)c1=O` [MBC-2138, reference compound]: the IC50 on Human recombinant GSK3β was 0.53 ± 0.03 µM; at BACE1, greater than 20 µM.
As for `CN1C(C(=O)Nc2ccccn2)=C(O)c2ccccc2S1(=O)=O` [Piroxicam, piroxicam, reference compound], in the data set “PAMPA-BBB test”, the Papp at 2.5 h was 2.92 ± 0.37 ×10⁻⁶ cm/s. Moreover, the “Pe Bibl.” value in data set [1] was 2.5 10-6 cm s-1.
For the compound `CN(C)CCCN1c2ccccc2Sc2ccccc21` [Promazine, promazine, reference compound], the Papp at 2.5 h in “PAMPA-BBB test” stood at 5.18 ± 0.43 ×10⁻⁶ cm/s. Also, the “Pe Bibl.” value in data set [1] is given as 8.8 10-6 cm s-1.
As for `O=C(Nc1nc2ccccc2s1)c1ccc(CSCCCSCc2ccc(C(=O)Nc3nc4ccccc4s3)cc2)cc1` [compound 3], the IC50 was 1.88 µM against LRRK2 and 7.14 µM against BACE1.
In the case of `O=C(Cc1ccc(OCc2cn(Cc3ccc(C(=O)Nc4nc5ccccc5s4)cc3)nn2)cc1)Nc1nc2ccc(C(F)(F)F)cc2s1` [compound 28], the IC50 came out at 0.71 ± 0.26 µM on LRRK2, 0.4 ± 0.06 µM on CK1δ and 7.21 ± 0.35 µM against BACE1. For the same compound, the CNS prediction entry in “PAMPA-BBB test” is reported as “CNS- (CNS‐ (red) for compounds with Pe <1.88×10^−6 cm s^−1)”. Further, the Papp at 2.5 h in “PAMPA-BBB test” is 0.65 ± 0.18 ×10⁻⁶ cm/s.
As for `COc1ccc2nc(NC(=O)Cc3ccc(OCc4cn(CCc5ccc(C(=O)Nc6nc7ccccc7s6)cc5)nn4)cc3)sc2c1` [compound 29], the IC50 against LRRK2 is 0.44 ± 0.1 µM; on CK1δ, 12.6 ± 0.7 µM; at BACE1, 11 ± 1.36 µM. In addition, the CNS prediction result in the data set “PAMPA-BBB test” was “CNS- (CNS‐ (red) for compounds with Pe <1.88×10^−6 cm s^−1)”. The Pe exp in the data set “PAMPA-BBB test” is reported as 0 10-6 cm s-1.
For `O=C(Cc1ccc(OCc2cn(CCc3ccc(C(=O)Nc4nc5ccccc5s4)cc3)nn2)cc1)Nc1nc2ccccc2s1` [compound 30], the melting point (commonly the temperature of the solid-liquid transition) was 239 to 240 °C. For the same compound, the IC50 against LRRK2 came out at 3.19 ± 1.01 µM. For the same compound, at CK1δ (read-out: CK1δ enzyme inhibition at 10 μM), the inhibition (as a rule, the percentage by which the read-out fell short of the control) at 10 µM was 30%. The compound also registered an IC50 against BACE1 of 8.57 ± 0.45 µM. Moreover, in “PAMPA-BBB test”, the CNS prediction result is “CNS+ (CNS+ (green) for compounds with Pe >3.20×10^−6 cm s^−1)” and the Papp at 2.5 h came to 3.58 ± 0.12 ×10⁻⁶ cm/s.
In the case of `CCOC(=O)c1sc(NC(=O)Cc2ccc(OCc3cn(Cc4ccc(CC(=O)Nc5nc6ccccc6s5)cc4)nn3)cc2)nc1C` [compound 31], the IC50 was 5.4 ± 0.91 µM against CK1δ and 6.76 ± 0.61 µM on BACE1. In addition, the inhibition at 10 µM on Human recombinant GSK3β (read-out: GSK3β enzyme inhibition at 10 μM) amounted to 26%. In the data set “PAMPA-BBB test” (PBS pH 7.4 with 5% DMSO), the “Solubility in the conditions of the PAMPA experiment” value is recorded as “insoluble”.
As for `O=C1Nc2ccccc2/C1=N/c1ccc(OCc2cn(Cc3ccc(C(=O)Nc4nc5ccccc5s4)cc3)nn2)cc1` [compound 32], the inhibition at 10 µM at LRRK2 was 54%; on BACE1 it was less than 20%.
For `O=C(Nc1nc2ccccc2s1)c1ccc(CCn2cc(COc3ccc(C(=O)Nc4nc5ccccc5s4)cc3)nn2)cc1` [compound 33], in that order: 98% and less than 20%.
